Experimental data: US11590139B2, “Substituted aminopurine compounds, compositions thereof, and methods of treatment therewith” (Signal Pharmaceuticals, LLC, priority 2014, dated 2023)

test system: Lox-IMVI melanoma cell line; experiment: Lox-IMVI anti-proliferative assay (growth inhibition, Cell Titer-Glo); type: cell-based, human; details: Homo sapiens; Lox-IMVI melanoma cell line, anti-proliferative assay; read-out: Activity (IC50 activity level)
How it was run: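 IC50 values reflect the concentration giving 50% of DMSO-control luminescence after 72 h of treatment, fitted with a four-parameter logistic model. Cells were cultured in RPMI + 10% FBS with compound from 0.5 nM to 10 μM.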

Row | Structure (SMILES) | IC50
1 | N#Cc1cc(Cl)c(Nc2nc3cnc(N[C@H]4CCC[C@H](O)C4)nc3n2[C@H]2CC[C@@H](C(N)=O)CC2)c(Cl)c1 [Example 688, (1R,4s)-4-(8-(2,6-dichloro-4-cyanophenylamino)-2-((1S,3S)-3-hydroxycyclohexylamino)-9H-purin-9-yl)cyclohexanecarboxamide] | 250 to 500 nM
2 | N#Cc1cc(F)c(Nc2nc3cnc(N[C@H]4CCC[C@H](O)C4)nc3n2[C@H]2CC[C@@H](C(N)=O)CC2)c(Cl)c1 [Example 689, (1R,4s)-4-(8-(2-chloro-4-cyano-6-fluorophenylamino)-2-((1S,3S)-3-hydroxycyclohexylamino)-9H-purin-9-yl)cyclohexanecarboxamide] | 250 to 500 nM
3 | NC(=O)[C@H]1CC[C@@H](n2c(Nc3c(Cl)cc(Br)cc3Cl)nc3cnc(NC4CCOCC4)nc32)CC1 [Example 690, (1s,4s)-4-(8-(4-bromo-2,6-dichlorophenylamino)-2-(tetrahydro-2H-pyran-4-ylamino)-9H-purin-9-yl)cyclohexanecarboxamide] | < 250 nM
4 | NC(=O)[C@H]1CC[C@@H](n2c(Nc3c(Cl)cc(Br)cc3Cl)nc3cnc(NC4CCC(F)(F)CC4)nc32)CC1 [Example 691, (1s,4s)-4-(8-(4-bromo-2,6-dichlorophenylamino)-2-(4,4-difluorocyclohexylamino)-9H-purin-9-yl)cyclohexanecarboxamide] | 500 to 1000 nM
5 | NC(=O)[C@H]1CC[C@@H](n2c(Nc3c(F)cc(F)cc3Cl)nc3cnc(N[C@H]4CCOC[C@H]4F)nc32)CC1 [Example 692, (1R,4s)-4-(8-(2-chloro-4,6-difluorophenylamino)-2-((3S,4S)-3-fluorotetrahydro-2H-pyran-4-ylamino)-9H-purin-9-yl)cyclohexanecarboxamide] | < 250 nM
6 | N#Cc1ccc(Nc2nc3cnc(NC4CCCC4)nc3n2[C@H]2CC[C@@H](C(N)=O)CC2)c(Cl)c1Cl [Example 693, (1s,4s)-4-(2-(cyclopentylamino)-8-(2,3-dichloro-4-cyanophenylamino)-9H-purin-9-yl)cyclohexanecarboxamide] | > 1000 nM
7 | C[C@@H](CO)Nc1ncc2nc(Nc3ccc(C#N)c(Cl)c3Cl)n([C@H]3CC[C@@H](C(N)=O)CC3)c2n1 [Example 694, (1R,4s)-4-(8-(2,3-dichloro-4-cyanophenylamino)-2-((S)-1-hydroxypropan-2-ylamino)-9H-purin-9-yl)cyclohexanecarboxamide] | > 1000 nM
8 | N#Cc1ccc(Nc2nc3cnc(NC4CCC(F)(F)CC4)nc3n2[C@H]2CC[C@@H](C(N)=O)CC2)c(Cl)c1Cl [Example 695, (1s,4s)-4-(8-(2,3-dichloro-4-cyanophenylamino)-2-(4,4-difluorocyclohexylamino)-9H-purin-9-yl)cyclohexanecarboxamide] | > 1000 nM
9 | N#Cc1ccc(Nc2nc3cnc(NC4CCOCC4)nc3n2[C@H]2CC[C@@H](C(N)=O)CC2)c(Cl)c1Cl [Example 696, (1s,4s)-4-(8-(2,3-dichloro-4-cyanophenylamino)-2-(tetrahydro-2H-pyran-4-ylamino)-9H-purin-9-yl)cyclohexanecarboxamide] | 500 to 1000 nM
10 | N#Cc1cc(F)c(Nc2nc3cnc(N[C@@H]4CCC(F)(F)C4)nc3n2[C@H]2CC[C@@H](C(N)=O)CC2)c(F)c1 [Example 697, (1S,4s)-4-(8-(4-cyano-2,6-difluorophenylamino)-2-((R)-3,3-difluorocyclopentylamino)-9H-purin-9-yl)cyclohexanecarboxamide] | 250 to 500 nM
11 | N#Cc1cc(F)c(Nc2nc3cnc(N[C@@H]4CCC(F)(F)C4)nc3n2[C@H]2CC[C@@H](C(N)=O)CC2)c(Cl)c1 [Example 698, (1S,4s)-4-(8-(2-chloro-4-cyano-6-fluorophenylamino)-2-((R)-3,3-difluorocyclopentylamino)-9H-purin-9-yl)cyclohexanecarboxamide] | < 250 nM
12 | N#Cc1cc(Cl)c(Nc2nc3cnc(N[C@@H]4CCC(F)(F)C4)nc3n2[C@H]2CC[C@@H](C(N)=O)CC2)c(Cl)c1 [Example 699, (1S,4s)-4-(8-(2,6-dichloro-4-cyanophenylamino)-2-((R)-3,3-difluorocyclopentylamino)-9H-purin-9-yl)cyclohexanecarboxamide] | 250 to 500 nM
13 | CS(=O)(=O)N1CCC[C@@H](Nc2ncc3nc(Nc4c(Cl)cc(Cl)cc4Cl)n([C@H]4CC[C@@H](C(N)=O)CC4)c3n2)C1 [Example 700, (1S,4s)-4-(2-((R)-1-(methylsulfonyl)piperidin-3-ylamino)-8-(2,4,6-trichlorophenylamino)-9H-purin-9-yl)cyclohexanecarboxamide] | 500 to 1000 nM
14 | CS(=O)(=O)N1CCC[C@@H](Nc2ncc3nc(Nc4c(F)cc(Cl)cc4Cl)n([C@H]4CC[C@@H](C(N)=O)CC4)c3n2)C1 [Example 701, (1S,4s)-4-(8-(2,4-dichloro-6-fluorophenylamino)-2-((R)-1-(methylsulfonyl)piperidin-3-ylamino)-9H-purin-9-yl)cyclohexanecarboxamide] | 500 to 1000 nM
15 | CS(=O)(=O)N1CCC[C@@H](Nc2ncc3nc(Nc4c(Cl)cc(C#N)cc4Cl)n([C@H]4CC[C@@H](C(N)=O)CC4)c3n2)C1 [Example 702, (1S,4s)-4-(8-(2,6-dichloro-4-cyanophenylamino)-2-((R)-1-(methylsulfonyl)piperidin-3-ylamino)-9H-purin-9-yl)cyclohexanecarboxamide] | > 1000 nM
16 | CS(=O)(=O)N1CCC[C@@H](Nc2ncc3nc(Nc4c(F)cc(Cl)cc4F)n([C@H]4CC[C@@H](C(N)=O)CC4)c3n2)C1 [Example 703, (1S,4s)-4-(8-(4-chloro-2,6-difluorophenylamino)-2-((R)-1-(methylsulfonyl)piperidin-3-ylamino)-9H-purin-9-yl)cyclohexanecarboxamide] | > 1000 nM
17 | CS(=O)(=O)N1CCC[C@@H](Nc2ncc3nc(Nc4c(F)cc(C#N)cc4Cl)n([C@H]4CC[C@@H](C(N)=O)CC4)c3n2)C1 [Example 704, (1S,4s)-4-(8-(2-chloro-4-cyano-6-fluorophenylamino)-2-((R)-1-(methylsulfonyl)piperidin-3-ylamino)-9H-purin-9-yl)cyclohexanecarboxamide] | > 1000 nM
18 | CNC(=O)N1CCC[C@@H](Nc2ncc3nc(Nc4c(Cl)cc(Cl)cc4Cl)n([C@H]4CC[C@@H](C(N)=O)CC4)c3n2)C1 [Example 705, (R)-3-(9-((1s,4S)-4-carbamoylcyclohexyl)-8-(2,4,6-trichlorophenylamino)-9H-purin-2-ylamino)-N-methylpiperidine-1-carboxamide] | > 1000 nM
19 | CNC(=O)N1CCC[C@@H](Nc2ncc3nc(Nc4c(F)cc(Cl)cc4Cl)n([C@H]4CC[C@@H](C(N)=O)CC4)c3n2)C1 [Example 706, (R)-3-(9-((1s,4S)-4-carbamoylcyclohexyl)-8-(2,4-dichloro-6-fluorophenylamino)-9H-purin-2-ylamino)-N-methylpiperidine-1-carboxamide] | > 1000 nM
20 | COC(=O)N1CCC[C@@H](Nc2ncc3nc(Nc4c(Cl)cc(C#N)cc4Cl)n([C@H]4CC[C@@H](C(N)=O)CC4)c3n2)C1 [Example 708, (R)-methyl 3-(9-((1s,4S)-4-carbamoylcyclohexyl)-8-(2,6-dichloro-4-cyanophenylamino)-9H-purin-2-ylamino)piperidine-1-carboxylate] | 250 to 500 nM
21 | COC(=O)N1CCC[C@@H](Nc2ncc3nc(Nc4c(F)cc(C#N)cc4Cl)n([C@H]4CC[C@@H](C(N)=O)CC4)c3n2)C1 [Example 709, (R)-methyl 3-(9-((1s,4S)-4-carbamoylcyclohexyl)-8-(2-chloro-4-cyano-6-fluorophenylamino)-9H-purin-2-ylamino)piperidine-1-carboxylate] | 500 to 1000 nM
22 | CC(=O)N1CCC[C@@H](Nc2ncc3nc(Nc4c(Cl)cc(Cl)cc4Cl)n([C@H]4CC[C@@H](C(N)=O)CC4)c3n2)C1 [Example 710, (1S,4s)-4-(2-((R)-1-acetylpiperidin-3-ylamino)-8-(2,4,6-trichlorophenylamino)-9H-purin-9-yl)cyclohexanecarboxamide] | > 1000 nM
23 | CC(=O)N1CCC[C@@H](Nc2ncc3nc(Nc4c(F)cc(Cl)cc4Cl)n([C@H]4CC[C@@H](C(N)=O)CC4)c3n2)C1 [Example 711, (1S,4s)-4-(2-((R)-1-acetylpiperidin-3-ylamino)-8-(2,4-dichloro-6-fluorophenylamino)-9H-purin-9-yl)cyclohexanecarboxamide] | > 1000 nM
24 | CC(=O)N1CCC[C@@H](Nc2ncc3nc(Nc4c(Cl)cc(C#N)cc4Cl)n([C@H]4CC[C@@H](C(N)=O)CC4)c3n2)C1 [Example 712, (1S,4s)-4-(2-((R)-1-acetylpiperidin-3-ylamino)-8-(2,6-dichloro-4-cyanophenylamino)-9H-purin-9-yl)cyclohexanecarboxamide] | > 1000 nM
25 | CC(=O)N1CCC[C@@H](Nc2ncc3nc(Nc4c(F)cc(Cl)cc4F)n([C@H]4CC[C@@H](C(N)=O)CC4)c3n2)C1 [Example 713, (1S,4s)-4-(2-((R)-1-acetylpiperidin-3-ylamino)-8-(4-chloro-2,6-difluorophenylamino)-9H-purin-9-yl)cyclohexanecarboxamide] | > 1000 nM
26 | NC(=O)[C@H]1CC[C@@H](n2c(Nc3c(F)cc(Cl)cc3Cl)nc3cnc(N[C@H]4CCOC[C@H]4F)nc32)CC1 [Example 714, (1R,4s)-4-(8-(2,4-dichloro-6-fluorophenylamino)-2-((3S,4S)-3-fluorotetrahydro-2H-pyran-4-ylamino)-9H-purin-9-yl)cyclohexanecarboxamide] | < 250 nM

same assay, conditions: Lox-IMVI melanoma cell line, anti-proliferative assay; read-out: Activity (IC50 activity level)

Row | Structure (SMILES) | IC50
27 | CNC(=O)N1CCC[C@@H](Nc2ncc3nc(Nc4c(Cl)cc(C#N)cc4Cl)n([C@H]4CC[C@@H](C(N)=O)CC4)c3n2)C1 [Example 707, (R)-3-(9-((1s,4S)-4-carbamoylcyclohexyl)-8-(2,6-dichloro-4-cyanophenylamino)-9H-purin-2-ylamino)-N-methylpiperidine-1-carboxamide] | > 1000 nM
